From PubChem BioAssay AID236 (DTP/NCI, 2004)
Where “and” joins values, the source holds several entries; their conditions need not be identical. Equal values may be shown once. Inconclusive results and toxic doses are left out. The calls were made as follows: active = survival T/C of 150% or more; inactive = T/C below 125% in these data.

Test system: AK4 lymphoid leukemia ip, C3AKF1 mice, survival
Test: NCI In Vivo Anticancer Drug Screen. Data for tumor model AK4 Lymphoid Leukemia (intraperitoneal) in C3AKF1 (CHKRF1) mice
Details: endpoint: median survival time, schedule: Q01DX010 (ip), vehicle: saline, higher = longer survival
Protocol: The antitumor activity of compounds was measured in mice bearing transplantable tumors. Survival or tumor size were measured and the results are expressed as the measurement made in the treated group (T) divided by the measurement made in the vehicle treated control group (C). The tumor model used in this assay is AK4 Lymphoid Leukemia (intraperitoneal) in C3AKF1 (CHKRF1) mice

Measured: T/C

CC(=O)Nc1ccc2nc3ccc(NC(C)=O)cc3[n+](-c3ccccc3)c2c1
inactive: dose: 50.0 mg/kg/injection 117 % of control | dose: 100.0 mg/kg/injection 105 % of control | dose: 200.0 mg/kg/injection 117 % of control | dose: 400.0 mg/kg/injection 105 % of control

N=C(N)c1ccc(Nc2ccc(C(=N)N)cc2)cc1
inactive: dose: 1.5 mg/kg/injection 88 % of control | dose: 3.0 mg/kg/injection 88 % of control and 122 % of control | dose: 6.0 mg/kg/injection 94 % of control and 105 % of control | dose: 12.0 mg/kg/injection 94 % of control and 111 % of control

CC1CCOS(=O)O1 (stereo not given)
inactive: dose: 10.0 mg/kg/injection 100 % of control | dose: 20.0 mg/kg/injection 88 % of control and 100 % of control | dose: 40.0 mg/kg/injection 90 % of control and 100 % of control | dose: 80.0 mg/kg/injection 88 % of control

CC(CCC(C)OS(C)(=O)=O)OS(C)(=O)=O (stereo not given)
inactive: dose: 2.0 mg/kg/injection 88 % of control | dose: 4.0 mg/kg/injection 88 % of control | dose: 8.0 mg/kg/injection 94 % of control
